Several values for one entry are separate records, joined by “and”; a condition that tells them apart may be missing. Identical values can stand only once. Inconclusive results and toxic doses are left out.
System: CD2F1 mice, L1210 leukemia ip, survival T/C
Experiment: NCI In Vivo Anticancer Drug Screen. Data for tumor model L1210 Leukemia (intraperitoneal) in CD2F1 (CDF1) mice
Details: higher = longer survival
In short: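 Compound-dosed mice with transplantable tumor versus matched vehicle controls; endpoint ratio T/C reported.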

CCO/C=C1\SC(=S)N(c2ccccc2C)C1=O
T/C (endpoint: mean survival time, dose: 100.0 mg/kg/injection, schedule: Q01DX009 (ip), vehicle: saline with Tween-80): 106 % of control and 111 % of control
T/C (endpoint: mean survival time, dose: 100.0 mg/kg/injection, schedule: Q04DX003 (ip), vehicle: saline with Tween-80): 103 % of control
T/C (endpoint: mean survival time, dose: 200.0 mg/kg/injection, schedule: Q01DX009 (ip), vehicle: saline with Tween-80): 103 % of control and 106 % of control
T/C (endpoint: mean survival time, dose: 200.0 mg/kg/injection, schedule: Q04DX003 (ip), vehicle: saline with Tween-80): 108 % of control
T/C (endpoint: mean survival time, dose: 400.0 mg/kg/injection, schedule: Q01DX009 (ip), vehicle: saline with Tween-80): 88 % of control
T/C (endpoint: mean survival time, dose: 400.0 mg/kg/injection, schedule: Q04DX003 (ip), vehicle: saline with Tween-80): 113 % of control

NC(CSS(=O)(=O)O)=NCc1cccs1
T/C (endpoint: mean survival time, dose: 25.0 mg/kg/injection, schedule: Q04DX002 (ip), vehicle: saline with Tween-80): 95 % of control
T/C (endpoint: mean survival time, dose: 50.0 mg/kg/injection, schedule: Q04DX002 (ip), vehicle: saline with Tween-80): 115 % of control

O=[N+]([O-])c1ccc(Sc2ncnc3nc[nH]c23)c([N+](=O)[O-])c1
T/C (endpoint: mean survival time, dose: 16.6 mg/kg/injection, schedule: Q01DX005 (ip), vehicle: other): 154 % of control
T/C (endpoint: mean survival time, dose: 25.0 mg/kg/injection, schedule: Q01DX005 (ip), vehicle: other): 167 % of control
T/C (endpoint: mean survival time, dose: 37.5 mg/kg/injection, schedule: Q01DX005 (ip), vehicle: other): 162 % of control
T/C (endpoint: mean survival time, dose: 56.3 mg/kg/injection, schedule: Q01DX005 (ip), vehicle: other): 167 % of control

ClC(Cl)c1nc2ccccc2[nH]1
T/C (endpoint: mean survival time, dose: 6.25 mg/kg/injection, schedule: Q01DX001 (ip), vehicle: Klucel (hydroxypropylcellulose) (HPC)): 89 % of control
T/C (endpoint: mean survival time, dose: 12.5 mg/kg/injection, schedule: Q01DX001 (ip), vehicle: Klucel (hydroxypropylcellulose) (HPC)): 96 % of control
T/C (endpoint: mean survival time, dose: 25.0 mg/kg/injection, schedule: Q01DX001 (ip), vehicle: Klucel (hydroxypropylcellulose) (HPC)): 89 % of control

CN(C)CCN1C(=O)c2cccc3cc(N)cc(c23)C1=O
T/C (endpoint: mean survival time, dose: 1.0 mg/kg/injection, schedule: Q01DX009 (ip), vehicle: saline with Tween-80): 92 % of control and 104 % of control
T/C (endpoint: mean survival time, dose: 2.0 mg/kg/injection, schedule: Q01DX009 (ip), vehicle: saline with Tween-80): 101 % of control and 102 % of control
T/C (endpoint: mean survival time, dose: 4.0 mg/kg/injection, schedule: Q01DX009 (ip), vehicle: saline with Tween-80): 107 % of control and 108 % of control
T/C (endpoint: mean survival time, dose: 16.0 mg/kg/injection, schedule: Q01DX009 (ip), vehicle: saline with Tween-80): 175 % of control and 197 % of control
T/C (endpoint: mean survival time, dose: 32.0 mg/kg/injection, schedule: Q01DX009 (ip), vehicle: saline with Tween-80): 89 % of control and 96 % of control
T/C (endpoint: median survival time, dose: 1.0 mg/kg/injection, schedule: Q01DX009 (ip), vehicle: acid diluted with saline): 99 % of control
T/C (endpoint: median survival time, dose: 1.2 mg/kg/injection, schedule: Q03HX024 (ip), vehicle: water): 113 % of control
T/C (endpoint: median survival time, dose: 1.8 mg/kg/injection, schedule: Q03HX024 (ip), vehicle: water): 117 % of control
T/C (endpoint: median survival time, dose: 2.0 mg/kg/injection, schedule: Q01DX009 (ip), vehicle: acid diluted with saline): 97 % of control and 107 % of control
T/C (endpoint: median survival time, dose: 2.0 mg/kg/injection, schedule: Q01DX009 (ip), vehicle: saline with Tween-80): 105 % of control
T/C (endpoint: median survival time, dose: 2.7 mg/kg/injection, schedule: Q03HX024 (ip), vehicle: water): 115 % of control
T/C (endpoint: median survival time, dose: 2.9 mg/kg/injection, schedule: Q01DX005 (iv), vehicle: water): 108 % of control
T/C (endpoint: median survival time, dose: 3.2 mg/kg/injection, schedule: Q01DX009 (ip), vehicle: saline): 118 % of control
T/C (endpoint: median survival time, dose: 3.2 mg/kg/injection, schedule: Q01DX009 (ip), vehicle: water): 105 % of control
T/C (endpoint: median survival time, dose: 3.65 mg/kg/injection, schedule: Q03HX008 (ip), vehicle: water): 118 % of control
T/C (endpoint: median survival time, dose: 4.0 mg/kg/injection, schedule: Q01DX009 (ip), vehicle: acid diluted with saline): 113 % of control and 99 % of control
T/C (endpoint: median survival time, dose: 4.0 mg/kg/injection, schedule: Q01DX009 (ip), vehicle: saline with Tween-80): 116 % of control
T/C (endpoint: median survival time, dose: 4.35 mg/kg/injection, schedule: Q01DX005 (iv), vehicle: water): 105 % of control
T/C (endpoint: median survival time, dose: 4.7 mg/kg/injection, schedule: Q01DX009 (ip), vehicle: water): 124 % of control
T/C (endpoint: median survival time, dose: 5.0 mg/kg/injection, schedule: Q01DX009 (ip), vehicle: acid diluted with saline): 113 % of control
T/C (endpoint: median survival time, dose: 5.44 mg/kg/injection, schedule: Q03HX008 (ip), vehicle: water): 120 % of control
T/C (endpoint: median survival time, dose: 5.76 mg/kg/injection, schedule: Q01DX005 (ip), vehicle: water): 117 % of control
T/C (endpoint: median survival time, dose: 6.03 mg/kg/injection, schedule: Q03HX024 (ip), vehicle: water): 154 % of control
T/C (endpoint: median survival time, dose: 6.5 mg/kg/injection, schedule: Q01DX005 (iv), vehicle: saline with Tween-80): 105 % of control
T/C (endpoint: median survival time, dose: 6.5 mg/kg/injection, schedule: Q01DX005 (iv), vehicle: water): 113 % of control
T/C (endpoint: median survival time, dose: 7.0 mg/kg/injection, schedule: Q01DX009 (ip), vehicle: acid diluted with saline): 114 % of control
T/C (endpoint: median survival time, dose: 7.1 mg/kg/injection, schedule: Q01DX009 (ip), vehicle: saline with Tween-80): 123 % of control
T/C (endpoint: median survival time, dose: 8.0 mg/kg/injection, schedule: Q01DX009 (ip), vehicle: acid diluted with saline): 118 % of control
T/C (endpoint: median survival time, dose: 8.46 mg/kg/injection, schedule: Q01DX005 (ip), vehicle: saline with Tween-80): 114 % of control
T/C (endpoint: median survival time, dose: 8.46 mg/kg/injection, schedule: Q01DX005 (ip), vehicle: water): 120 % of control
T/C (endpoint: median survival time, dose: 9.0 mg/kg/injection, schedule: Q03HX024 (ip), vehicle: water): 209 % of control
T/C (endpoint: median survival time, dose: 9.7 mg/kg/injection, schedule: Q01DX005 (iv), vehicle: saline with Tween-80): 114 % of control
T/C (endpoint: median survival time, dose: 9.7 mg/kg/injection, schedule: Q01DX005 (iv), vehicle: water): 120 % of control
T/C (endpoint: median survival time, dose: 9.7 mg/kg/injection, schedule: Q04DX003 (ip), vehicle: water): 120 % of control
T/C (endpoint: median survival time, dose: 10.0 mg/kg/injection, schedule: Q01DX009 (ip), vehicle: acid diluted with saline): 117 % of control
T/C (endpoint: median survival time, dose: 10.7 mg/kg/injection, schedule: Q01DX009 (ip), vehicle: saline): 165 % of control
T/C (endpoint: median survival time, dose: 11.0 mg/kg/injection, schedule: Q01DX009 (ip), vehicle: saline with Tween-80): 150 % of control and 167 % of control
T/C (endpoint: median survival time, dose: 12.1 mg/kg/injection, schedule: Q03HX008 (ip), vehicle: water): 174 % of control
T/C (endpoint: median survival time, dose: 13.4 mg/kg/injection, schedule: Q03HX024 (ip), vehicle: water): 103 % of control
T/C (endpoint: median survival time, dose: 14.5 mg/kg/injection, schedule: Q04DX003 (ip), vehicle: water): 120 % of control
T/C (endpoint: median survival time, dose: 14.6 mg/kg/injection, schedule: Q01DX001 (iv), vehicle: water): 112 % of control
T/C (endpoint: median survival time, dose: 16.0 mg/kg/injection, schedule: Q01DX009 (ip), vehicle: acid diluted with saline): 175 % of control and 217 % of control and 112 % of control
T/C (endpoint: median survival time, dose: 16.0 mg/kg/injection, schedule: Q01DX009 (ip), vehicle: saline): 206 % of control
T/C (endpoint: median survival time, dose: 16.0 mg/kg/injection, schedule: Q01DX009 (ip), vehicle: water): 187 % of control
T/C (endpoint: median survival time, dose: 19.3 mg/kg/injection, schedule: Q01DX005 (ip), vehicle: saline with Tween-80): 158 % of control
T/C (endpoint: median survival time, dose: 19.3 mg/kg/injection, schedule: Q01DX005 (ip), vehicle: water): 183 % of control
T/C (endpoint: median survival time, dose: 21.6 mg/kg/injection, schedule: Q01DX005 (iv), vehicle: saline with Tween-80): 162 % of control
T/C (endpoint: median survival time, dose: 21.6 mg/kg/injection, schedule: Q01DX005 (iv), vehicle: water): 182 % of control
T/C (endpoint: median survival time, dose: 21.8 mg/kg/injection, schedule: Q01DX001 (iv), vehicle: water): 113 % of control
T/C (endpoint: median survival time, dose: 24.0 mg/kg/injection, schedule: Q01DX009 (ip), vehicle: saline with Tween-80): 158 % of control and 163 % of control
T/C (endpoint: median survival time, dose: 24.0 mg/kg/injection, schedule: Q01DX009 (ip), vehicle: saline): 118 % of control
T/C (endpoint: median survival time, dose: 24.0 mg/kg/injection, schedule: Q01DX009 (ip), vehicle: water): 117 % of control
T/C (endpoint: median survival time, dose: 28.8 mg/kg/injection, schedule: Q01DX001 (ip), vehicle: water): 120 % of control
T/C (endpoint: median survival time, dose: 28.8 mg/kg/injection, schedule: Q01DX005 (ip), vehicle: saline with Tween-80): 187 % of control
T/C (endpoint: median survival time, dose: 28.8 mg/kg/injection, schedule: Q01DX005 (ip), vehicle: water): 195 % of control
T/C (endpoint: median survival time, dose: 28.9 mg/kg/injection, schedule: Q01DX009 (oral), vehicle: water): 174 % of control
T/C (endpoint: median survival time, dose: 32.0 mg/kg/injection, schedule: Q01DX009 (ip), vehicle: acid diluted with saline): 95 % of control
T/C (endpoint: median survival time, dose: 32.0 mg/kg/injection, schedule: Q01DX009 (ip), vehicle: saline with Tween-80): 90 % of control and 108 % of control
T/C (endpoint: median survival time, dose: 32.2 mg/kg/injection, schedule: Q01DX005 (iv), vehicle: saline with Tween-80): 96 % of control
T/C (endpoint: median survival time, dose: 32.3 mg/kg/injection, schedule: Q04DX003 (ip), vehicle: water): 196 % of control
T/C (endpoint: median survival time, dose: 36.0 mg/kg/injection, schedule: Q01DX009 (ip), vehicle: saline): 93 % of control
T/C (endpoint: median survival time, dose: 43.1 mg/kg/injection, schedule: Q01DX009 (oral), vehicle: water): 108 % of control
T/C (endpoint: median survival time, dose: 43.2 mg/kg/injection, schedule: Q01DX005 (ip), vehicle: saline with Tween-80): 95 % of control
T/C (endpoint: median survival time, dose: 48.3 mg/kg/injection, schedule: Q04DX003 (ip), vehicle: water): 244 % of control
T/C (endpoint: median survival time, dose: 72.0 mg/kg/injection, schedule: Q04DX003 (ip), vehicle: water): 108 % of control

Reference: PubChem BioAssay AID256 (DTP/NCI, 2004)
